Assay results as given in US11142547B2, “Polypeptide and use thereof” (Genoimmune Therapeutics Co., Ltd., priority 2016, dated 2021).

Test system: human non-small cell lung adenocarcinoma cell line H2087—polypeptide FLLGNLFFV (SEQ ID NO:1)
Assay: DC polypeptide vaccine in subcutaneous tumor-modeled mice
Type: in vivo, NOD/SCID mice
Settings: DCs loaded with the polypeptide, intracutaneous, vs DCs loaded with wild-type polypeptide; FIG. 6
Method: The human non-small cell lung adenocarcinoma cell line NCI-H2087 which is HLA-A*0201 positive was purchased from ATCC (Cat. No.: CRL-5922). The cell line NCI-H2087 was incubated in the Dulbecco's Modified Eagle Medium (DMEM) containing 10% fetal calf serum, 100 U/mL penicillin and 100 U/mL streptomycin in an incubator under 37° C. and 5% CO2, and subsequently infected with the lentivirus expressing the mutant polypeptide (depicted in […], SEQ ID NO:1) as prepared in 6.1. Afterwards, the infected cells were incubated with the Puromycin antibiotic for a certain duration to screen out those viable infected cells, i.e., obtaining the human non-small cell lung adenocarcinoma cell line H2087 which expresses the mutant polypeptide (depicted in […], SEQ ID NO:1) and named as the human non-small cell lung adenocarcinoma cell line H2087—polypeptide […] (SEQ ID NO:1).
After isolated with Ficoll solution from 600 to 900 ml anticoagulant peripheral blood from a healthy volunteer, the collected PBMCs in a concentration of 2×10^7 cells/0.5 ml were intraperitoneally injected into each of 300 NOD SCID mice without immune leakage, so as to reconstruct a human immune system in the NOD SCID mice, with the mice after 4 weeks selected for subsequent inoculation of the human non-small cell lung adenocarcinoma cell line H2087—polypeptide […] obtained in 6.2.
The human non-small cell lung adenocarcinoma cell line H2087—polypeptide […] (SEQ ID NO:1) obtained in 6.2 was incubated in DMEM medium containing 10% fetal calf serum, 100 U/mL penicillin and 100 U/mL streptomycin in an incubator under 37° C. and 5% CO2, and then the cells were centrifuged at 3000 rpm for collection. The collected cells were washed with sterile physiological saline three times, and then diluted appropriately. To 40 μl tumor cell suspension, 10 μl 0.4% […] was added for staining, subsequently the tumor cell suspension in a concentration of 1×10^8 cells/ml was prepared after counting under microscope. 100 μl of the tumor cell suspension was inoculated into each of the NOD/SCID mice by subcutaneous injection at 4 weeks post immune reconstruction in 6.3, with daily observation of the presence/absence of infection at inoculation sites, the increase/decrease of tumor size (in the case of presence of a tumor), and measurement of the major axis (a) and the minor axis (b) of a tumor by a vernier caliper every 2 or 3 days (where the tumor size=a×b×b/2). After 7 days from inoculation, a tumor in a size of rice grain was touchable at the inoculation site. After that, the subcutaneous tumor-modeled NOD/SCID mice (modeled with H2087—polypeptide […] (SEQ ID NO:1)) were treated with a polypeptide+complete Freund's adjuvant vaccine, a polypeptide+DCs vaccine, a lentivirus-infected DCs vaccine and a DC-CTL vaccine respectively, with the tumor size and mouse survival rate observed and recorded every 2 days.
Peripheral blood mononuclear cells (PBMCs) in 100 to 150 mL anticoagulant peripheral blood obtained from a healthy volunteer were isolated with Ficoll solution. The collected PBMCs suspended in the RPMI 1640 medium in a concentration of 2×10^6-3×10^6 cells/ml were incubated at 37° C. for 2 hours, obtaining adherent monocytes which can be induced into DCs, and non-adherent peripheral blood lymphocytes (PBLs) for use. Such the monocytes were induced into immature DCs in the presence of GM-CSF (1000 U/ml) and IL-4 (1000 U/ml), followed by inducing to mature DCs in the presence of IFN-γ (100 U/ml) and CD40L (10 ng/ml), as well as the subsequently added 10 μg/ml wild-type polypeptide (depicted in […], SEQ ID NO:5), 10 μg/ml mutant polypeptide (depicted in […], SEQ ID NO:1), 10 μg/ml mutant polypeptide's variant (depicted in […], SEQ ID NO:2), 10 μg/ml mutant polypeptide's variant (depicted in […], SEQ ID NO:3), and 10 μg/ml mutant polypeptide's variant (depicted in […], SEQ ID NO:4), respectively. […]

FMLGNLFFV was tested, and the Mouse survival period was “prolonging the mouse survival period” and the Tumor growth was “mitigating tumor growth significantly”.
FMLGNLFFL was tested, and the Mouse survival period was “prolonging the mouse survival period” and the Tumor growth was “mitigating tumor growth significantly”.
FLLGNLFFL was tested, and the Mouse survival period was “prolonging the mouse survival period” and the Tumor growth was “mitigating tumor growth significantly”.
In the case of FLLGNLFFV, the Mouse survival period is reported as “prolonging the mouse survival period” and the Tumor growth is reported as “mitigating tumor growth significantly”.
